Measured values reported in US20050192247A1, “Method of treating cancers” (priority 2004, published 2005).
Structures can show the parent of a compound that is named as a salt.

Assays:
[1] = test system: Human pancreatic cancer Panc-1 cells; experiment: Panc-1 human pancreatic cancer xenograft mouse model; format: in vivo; conditions: post-treatment observation 19 days
Description: Human pancreatic cancer Panc-1 cells (2×10^6) are implanted subcutaneously into male athymic nude (Ncr) mice. Following establishment of tumor nodules (about 50 mm^3), the animals are randomized into four groups of five animals per group. The animals are treated intraperitoneally with one of four treatments: β-lapachone at 40 mg/kg in 40% hydroxypropy-β-cyclodextran; gemcitabine (Gemzar®) at 120 mg/kg (in PBS); β-lapachone (40 mg/kg)+gemcitabine (120 mg/kg); or vehicle control. The mice receive a total of ten treatments, administered every three days (on study day 5, 8, 11, 14, 17, 20, 31, 34, 37, and 40). The combination therapy group receives β-lapachone and gemcitabine on the same day in each treatment. Following treatment, the animals are observed for an additional 19 days. Tumors are measured throughout the treatment and post-treatment periods.

[2] = test system: A549 human lung cancer cells; experiment: A549 human lung cancer xenograft mouse model; format: in vivo; conditions: for tumor growth during treatment: eight treatments
Description: The anti-tumor activity of β-lapachone is examined using a human lung cancer xenograft model. Briefly, athymic female nude mice (Ncr) are inoculated subcutaneously with 4×10^6 A549 human lung cancer cells, and the tumors are allowed to grow to approximately 50 mm^3 in size. The animals are randomized into five groups of seven animals per group, and treated intraperitoneally every three days with one of the following five regimens: β-lapachone at 40 mg/kg in 40% hydroxypropy-β-cyclodextran (“HPBCD”); β-lapachone at 60 mg/kg in 40% HPBCD; gemcitabine (GEMZAR®) at 120 mg/kg in PBS; β-lapachone (40 mg/kg)+gemcitabine (120 mg/kg); or vehicle control (40% HPBCD). The combination therapy group receives treatments with β-lapachone and gemcitabine at the indicated concentrations on the same day, every three days. Mice receive a total of eight treatments. Mean tumor volume is analyzed; data points in FIG. 2 represent the arithmetic mean+/−SEM of five tumors.

[3] = test system: CEM T lymphoblastoid cells; conditions: cited from earlier work
[4] = test system: human ovarian cancer, human prostate cancer, human breast cancer, human multiple myeloma; conditions: cited from earlier work
[5] = test system: human breast cancer cells; conditions: cited from earlier work
[6] = test system: ovary, colon, and pancreatic cancer cells; conditions: through induction of caspase; cited from earlier work
[7] = in vivo; cited from earlier work
[8] = cited from earlier work

| SMILES | tumor re-growth after termination of treatment ([1]; gemcitabine 120 mg/kg) [%] | tumor growth during treatment ([2]; gemcitabine 120 mg/kg intraperitoneally every three days) | internucleosomal DNA fragmentation [3] | tumor re-growth after termination of treatment ([1]; β-lapachone 40 mg/kg) | tumor growth during treatment ([2]; β-lapachone 60 mg/kg intraperitoneally every three days) | retardation of tumor growth, 60 mg/kg compared with 40 mg/kg ([2]; β-lapachone 60 mg/kg versus 40 mg/kg) | anti-tumor effect as a single agent [4] | type of cell death induced [5] | type of cell death induced [6] | tolerability [7] | water solubility [8] |
| --- | --- | --- | --- | --- | --- | --- | --- | --- | --- | --- | --- |
| Nc1ccn([C@@H]2O[C@H](CO)[C@@H](O)C2(F)F)c(=O)n1 [gemcitabine, 2′-deoxy-2′,2′-difluorocytidine monohydrochloride (β-isomer), reference compound] | 400 | retarded tumor growth | induces internucleosomal DNA fragmentation | – | – | – | – | – | – | – | – |
| CC1(C)CCC2=C(O1)c1ccccc1C(=O)C2=O [β-lapachone, 3,4-dihydro-2,2-dimethyl-2H-naphtho[1,2-b]pyran-5,6-dione] | – | – | – | no significant re-growth | retarded tumor growth | more effective at retarding tumor growth | decrease the number of tumors, reduce tumor size, or increase survival time | induces necrosis | apoptosis | generally well-tolerated | non-water soluble |
